Laboratory results reported in PubChem BioAssay AID330 (DTP/NCI, 2004).
Values joined by “and” are separate entries in the source; they are usually repeats but may differ in a detail not shown here. Equal values may be shown once. Inconclusive results and toxic doses are left out. The calls were made as follows: active = survival T/C of 150% or more; inactive = T/C below 125% in these data.

Tested on: P388 leukemia ip, CD2F1 mice, survival T/C
Assay: NCI In Vivo Anticancer Drug Screen. Data for tumor model P388 Leukemia (intraperitoneal) in CD2F1 (CDF1) mice
Details: endpoint: median survival time, higher = longer survival
Summary of the method: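 Mice carrying the transplanted tumor received test compound or vehicle. Survival was recorded in each group, and the value is the treated-group measurement divided by that of the vehicle-treated control group.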

[1] = dose: 50.0 mg/kg/injection, schedule: Q01DX009 (ip), vehicle: saline
[2] = dose: 100.0 mg/kg/injection, schedule: Q01DX009 (ip), vehicle: saline
[3] = dose: 200.0 mg/kg/injection, schedule: Q01DX009 (ip), vehicle: saline
[4] = dose: 6.25 mg/kg/injection, schedule: Q01DX009 (ip), vehicle: saline
[5] = dose: 12.5 mg/kg/injection, schedule: Q01DX009 (ip), vehicle: saline
[6] = dose: 25.0 mg/kg/injection, schedule: Q01DX009 (ip), vehicle: saline
[7] = dose: 200.0 mg/kg/injection, schedule: Q01DX009 (ip), vehicle: saline with Tween-80
[8] = dose: 50.0 mg/kg/injection, schedule: Q01DX005 (ip), vehicle: saline
[9] = dose: 60.0 mg/kg/injection, schedule: Q01DX005 (ip), vehicle: saline with Tween-80
[10] = dose: 120.0 mg/kg/injection, schedule: Q01DX005 (ip), vehicle: saline with Tween-80
[11] = dose: 240.0 mg/kg/injection, schedule: Q01DX005 (ip), vehicle: saline with Tween-80
[12] = dose: 100.0 mg/kg/injection, schedule: Q01DX001 (ip), vehicle: saline with Tween-80
[13] = dose: 200.0 mg/kg/injection, schedule: Q01DX001 (ip), vehicle: saline with Tween-80
[14] = dose: 50.0 mg/kg/injection, schedule: Q01DX009 (ip), vehicle: saline with Tween-80
[15] = dose: 100.0 mg/kg/injection, schedule: Q01DX009 (ip), vehicle: saline with Tween-80

Measured: T/C

CC(C)(C)OC(=O)NC(CCCNC(=O)OCc1ccccc1)C(=O)O (stereo not drawn)
inactive: dose: 50.0 mg/kg/injection, schedule: Q01DX005 (ip), vehicle: Klucel (hydroxypropylcellulose) (HPC) 100 % of control | dose: 100.0 mg/kg/injection, schedule: Q01DX005 (ip), vehicle: Klucel (hydroxypropylcellulose) (HPC) 100 % of control | dose: 200.0 mg/kg/injection, schedule: Q01DX005 (ip), vehicle: Klucel (hydroxypropylcellulose) (HPC) 99 % of control

Cc1ccc(S(=O)(O)=S)cc1
inactive: [1] 101 % of control | [2] 107 % of control | dose: 100.0 mg/kg/injection, schedule: Q04DX002 (ip), vehicle: saline 105 % of control | [3] 115 % of control | dose: 200.0 mg/kg/injection, schedule: Q04DX002 (ip), vehicle: saline 101 % of control | dose: 400.0 mg/kg/injection, schedule: Q04DX002 (ip), vehicle: saline 102 % of control

Cc1nc2c(ccc3cc4ccccc4cc32)cc1N(CCO)CCO
inactive: dose: 50.0 mg/kg/injection, schedule: Q01DX009 (ip), vehicle: saline + Tween-80 + alcohol 110 % of control | dose: 100.0 mg/kg/injection, schedule: Q01DX009 (ip), vehicle: saline + Tween-80 + alcohol 108 % of control | dose: 200.0 mg/kg/injection, schedule: Q01DX009 (ip), vehicle: saline + Tween-80 + alcohol 99 % of control

C/C=C/C=C\C(=O)O
inactive: [4] 102 % of control | [5] 93 % of control | [6] 93 % of control | [7] 104 % of control

CCCCCN(CCCCC)CCCNc1c2c(nc3ccc(Cl)cc13)CCCC2
inactive: dose: 12.5 mg/kg/injection, schedule: Q01DX005 (ip), vehicle: saline 95 % of control | dose: 25.0 mg/kg/injection, schedule: Q01DX005 (ip), vehicle: saline 104 % of control | [8] 104 % of control and 107 % of control

CN(C)c1ccc(/C=C/c2ccnnc2)cc1
inactive: [1] 99 % of control | [2] 104 % of control | [3] 100 % of control

N=c1nc(N)c2ncc(/C=C/c3ccccc3)n(O)c-2n1
inactive: dose: 15.0 mg/kg/injection, schedule: Q01DX009 (ip), vehicle: saline 97 % of control | dose: 30.0 mg/kg/injection, schedule: Q01DX009 (ip), vehicle: saline 101 % of control | dose: 60.0 mg/kg/injection, schedule: Q01DX009 (ip), vehicle: saline 101 % of control

Nc1ncnc2cc3cn[nH]c3cc12
inactive: dose: 12.5 mg/kg/injection, schedule: Q01DX005 (ip), vehicle: saline with Tween-80 96 % of control | dose: 25.0 mg/kg/injection, schedule: Q01DX005 (ip), vehicle: saline with Tween-80 95 % of control | dose: 50.0 mg/kg/injection, schedule: Q01DX005 (ip), vehicle: saline with Tween-80 94 % of control and 97 % of control | dose: 100.0 mg/kg/injection, schedule: Q01DX005 (ip), vehicle: saline with Tween-80 91 % of control | dose: 200.0 mg/kg/injection, schedule: Q01DX005 (ip), vehicle: saline with Tween-80 100 % of control

CC1(COC(=O)C2(C)CO2)CO1 (stereo not drawn)
inactive: dose: 25.0 mg/kg/injection, schedule: Q01DX005 (ip), vehicle: water 99 % of control | [8] 91 % of control | dose: 50.0 mg/kg/injection, schedule: Q01DX005 (ip), vehicle: water 101 % of control and 115 % of control | dose: 100.0 mg/kg/injection, schedule: Q01DX005 (ip), vehicle: saline 97 % of control | dose: 100.0 mg/kg/injection, schedule: Q01DX005 (ip), vehicle: water 120 % of control | dose: 200.0 mg/kg/injection, schedule: Q01DX005 (ip), vehicle: saline 91 % of control

C=C1C(=O)OC2/C=C(\C)C(O)CC(O)C(C)(O)CC(OC(=O)/C(C)=C/C)C12 (stereo not drawn)
inactive: dose: 10.0 mg/kg/injection, schedule: Q01DX009 (ip), vehicle: saline with Tween-80 102 % of control | dose: 20.0 mg/kg/injection, schedule: Q01DX009 (ip), vehicle: saline with Tween-80 100 % of control and 119 % of control and 97 % of control | dose: 40.0 mg/kg/injection, schedule: Q01DX009 (ip), vehicle: saline with Tween-80 101 % of control and 113 % of control and 123 % of control | dose: 80.0 mg/kg/injection, schedule: Q01DX009 (ip), vehicle: saline with Tween-80 113 % of control and 115 % of control

Cn1ccnc1CC(C)(O)c1ccccc1 (stereo not drawn)
inactive: [9] 103 % of control | [10] 104 % of control | [11] 108 % of control

O=C(Oc1ccc[nH]c1=O)c1ccc([N+](=O)[O-])cc1
inactive: [5] 106 % of control and 110 % of control | [6] 101 % of control and 110 % of control | [1] 102 % of control and 103 % of control and 118 % of control | [2] 105 % of control and 118 % of control | [3] 100 % of control and 110 % of control and 91 % of control | dose: 400.0 mg/kg/injection, schedule: Q01DX009 (ip), vehicle: saline 101 % of control and 110 % of control

CCOC(=O)C(C(=O)C(F)(F)C(F)(F)C(F)(F)C(=O)C(C(=O)OCC)=P(c1ccccc1)(c1ccccc1)c1ccccc1)=P(c1ccccc1)(c1ccccc1)c1ccccc1
inactive: [12] 108 % of control | [13] 99 % of control | dose: 400.0 mg/kg/injection, schedule: Q01DX001 (ip), vehicle: saline with Tween-80 108 % of control

O=C1NC(=O)C2(CC3CCCC(C2)N3c2ccccc2)N1 (stereo not drawn)
inactive: dose: 100.0 mg/kg/injection, schedule: Q04DX003 (ip), vehicle: DMSO 95 % of control | dose: 200.0 mg/kg/injection, schedule: Q04DX003 (ip), vehicle: DMSO 89 % of control | dose: 400.0 mg/kg/injection, schedule: Q04DX003 (ip), vehicle: DMSO 91 % of control

NCCC(=O)CN
inactive: dose: 100.0 mg/kg/injection, schedule: Q04DX003 (ip), vehicle: saline 104 % of control | dose: 200.0 mg/kg/injection, schedule: Q04DX003 (ip), vehicle: saline 109 % of control | dose: 400.0 mg/kg/injection, schedule: Q04DX003 (ip), vehicle: saline 104 % of control

COC(=O)C(=O)C(C(=O)c1cccc2ccccc12)c1nc2n(c1O)C(=N)N=N2 (stereo not drawn)
inactive: [9] 109 % of control | [10] 104 % of control | [11] 100 % of control

CC(C)(C)c1ccc(S(=O)(=O)O)cc1
inactive: [1] 103 % of control | [2] 100 % of control | [3] 86 % of control

O=C(O)C1=C(C=C2CCCCC2)OCCC1
inactive: [14] 88 % of control | [15] 92 % of control | [7] 95 % of control

COc1cc(/C=C2\N=C(c3cc(OC)c(OC)c(OC)c3)OC2=O)ccc1O
inactive: [14] 91 % of control | [15] 95 % of control | [7] 105 % of control

CC(C)(C)NC(=O)C(Cl)Cl
inactive: dose: 50.0 mg/kg/injection, schedule: Q01DX001 (ip), vehicle: saline with Tween-80 100 % of control | [12] 100 % of control | [13] 95 % of control

O=C(O)C1C2CC3C(OC(=O)C31)C2Br (stereo not drawn)
inactive: [9] 100 % of control | [10] 97 % of control | [11] 96 % of control

COC(=O)C(CNc1ccc(S(N)(=O)=O)cc1)=[N+]=[N-]
inactive: [4] 98 % of control | [5] 97 % of control | [6] 91 % of control | [2] 100 % of control | [3] 99 % of control

CC1CC[N-]C(C)C1.CN(C)C=O.[Cl][Pt][Cl] (stereo not drawn)
inactive: dose: 1.56 mg/kg/injection, schedule: Q01DX009 (ip), vehicle: saline with Tween-80 114 % of control | dose: 3.13 mg/kg/injection, schedule: Q01DX009 (ip), vehicle: saline with Tween-80 124 % of control
